# Measured values published in article PMC11993615, “Design, synthesis and optimization of TarO inhibitors as multifunctional antibiotics against Methicillin-resistant Staphylococcus aureus” (npj Antimicrobials and Resistance, 2025).
# pIC50: −log10 of the molar value.
# Key:
# bacteria = assay: MIC determination, positive control (strain not stated); conditions: 24 h
# [1] = test system: S.aureus USA300 LAC wild-type; assay: Antagonistic (chemical suppression) test of 18a against Targocil, checkerboard
# [2] = test system: ΔtarO strain of USA300 LAC; assay: Chemical suppression test, Targocil on tarO null mutant control; conditions: Targocil 2–64 μg/mL
# [3] = Cytotoxicity assay (Sulforhodamine B); format: cell-based; conditions: human
# Experimental: The cytotoxicity was detected by Sulforhodamine B method. The human pancreatic cancer cell line Capan-1, human colon cancer cell line HCT-116 and human lung adenocarcinoma cell line NCI-H1373 were purchased from American Type Culture Collection (ATCC; Manassas, VA) and inoculated into 96-well plates in triplicate. The cells were treated with different concentrations of compounds in humidified incubator containing 5% CO2 for 72 h when they reached 70%-80% confluence. Vincristine was added as a positive control. Then, SRB staining agent was added and microplate analyzer was used to read the absorbance at 450 nm wavelength. The cytotoxicity of each compound is expressed as the concentration of the compound that reduces cell viability to 50% (IC50). The optical density (OD) at a wavelength of 450 nm was measured using an SpectraMax 190 Microplate Reader (Molecular Devices; USA). The IC50 value was calculated by the Logit method using Graphpad Prism 9.1.
# TarO = TarO (Staphylococcus aureus, UniProt Q2G060); format: cell-based; conditions: relative inhibition rate against the wild-type strain, OD600 at 20 h; n.a. = IC50 cannot be calculated within the test range
# [4] = test system: S.aureus USA300 LAC biofilm; assay: Static biofilm inhibition assay (crystal violet); format: cell-based, Staphylococcus aureus; conditions: USA300 LAC, 24 h static culture
# [5] = Preliminary liver microsomal stability testing; format: in vitro ADME, Mouse
# Experimental: 6. Supplementary Ta b l e 3: Preliminary liver microsomal stability testing of Ta r O
# Compounds Species T1/2 Clint In Vitro MF […]
# a MF: metabolic bioavailability.
# Microsomes in 0.1 M TRIS buffer pH 7.4 (final concentration 0.33 mg/mL), co- factor MgCl2 (final concentration 5 mM) and tested compound (final concentration 0.1 μM, co-solvent 0.01% DMSO and 0.005% Bovin serum albumin BSA) were incubated at 37°C for 10 min. The reaction was started by the addition of NADPH (final concentration 1 mM). Aliquots were sampled at 0, 5, 15, 30 and 60 min respectively and methanol (cold in wet ice) was added to terminate the reaction.
# After centrifugation (4000rpm,5 min), samples were then analyzed by LC- MS/MS.
# HS663 [6] = assay: Checkerboard MIC assay with imipenem; format: cell-based, Staphylococcus aureus; conditions: for MIC of β-lactam, combined: HS663
# Experimental: (§1) In the checkerboard assay, concentrations of antibiotics, oxacillin and imipenem, and TarO inhibitors were simultaneously varied across columns and the rows, respectively. […] The range of each compound chosen for the checkerboard assay was according to their MIC value. […] For each clear well observed on the checkerboard MIC plate, the fractional inhibitory concentration index (FICI) was calculated as follows: FICI = FIC (inhibitor) + FIC (antibiotic) = MIC inhibitor in combination/ MIC inhibitor alone + MIC antibiotic in combination/MIC antibiotic alone. FIC = Fractional Inhibitory Concentration. A FICI value of < 0.5 indicates synergy, a value between 0.5 and 2 indicates additivity or indifference, and a value > 2 indicates antagonism.
# USA400 MW2 [7] = assay: Checkerboard MIC assay with oxacillin; format: cell-based, Staphylococcus aureus; conditions: for MIC of β-lactam, combined: USA400 MW2
# Experimental: as §1
# USA300 LAC [8] = assay: Checkerboard MIC assay with oxacillin; format: cell-based, Staphylococcus aureus; conditions: USA300 LAC/oxacillin
# Experimental: as §1
# [9] = test system: TntarO::vraXpro-lux (S.aureus JE2 tarO mutant); assay: vraXpro-lux induction and growth of tarO mutant (target verification); format: cell-based, Staphylococcus aureus; conditions: different concentrations
# Experimental: Second, the vraXpro-lux induction and growth inhibition experiment were conducted using a tarO mutant, as we assumed that a compound with other targets may still change the growth characteristic and the vraXpro-lux expression pattern of the mutant, whereas a TarO inhibitor would not, as its target is absent in the mutant.
# Generally, JE2::vraXpro-lux and its isogenic ^TntarO::vraXpro-lux reporter strains were used for preliminary screening and cellular-based target verification. JE2::vraXpro-lux was obtained by transduction of the vraXpro-lux fusions from RN4220 strain to JE2, a plasmid-cured derivative of the community-associated MRSA strain USA300 LAC. ^TntarO::vraXpro-lux was further obtained by transposon insertion mutation of the tarO gene using a mariner-based transposon in JE2 reporter strain[41]. […] Then, 200 μL aliquot of the samples were distributed to a 96-well black-wall clear-bottom plate (Costar, Corning Incorporated), and 45 μL saxoline was added to each well to prevent the evaporation of the medium. vraXpro-lux expression level and the growth curve were measured using a Cytation 1 Multi-Mode Microplate Reader (Biotek) at different time points as indicated.
# HS663 [10] = assay: MIC determination, broth microdilution
# USA300 LAC [11] = assay: MIC determination, broth microdilution; conditions: Staphylococcus aureus
# MRSA HS663 strain = assay: Galleria mellonella larva infection assay; conditions: for survival time of infected larvae: HS663 1.5 × 10^6 CFU
# Experimental: Galleria mellonella infection experiment was performed according to previous methods[24]. Generally, HS663 was grown overnight in TSB (Tryptone Soya Broth) at 37 °C with shaking at 250 rpm. Then cultures were diluted 1:100 into 10 ml fresh TSB, and were further grown for 3 h. The bacterial cells were harvested by centrifugation at 5700 g for 5 min, washed twice with sterilized PBS, and suspended with PBS. Galleria mellonella larvae (Tianjin HuiYuDe Biotechnological Co., Ltd.) about 300 mg was selected to infect. […] After infection for 1 h, the larvae were administrated with compounds or solvent only. Then the Galleria mellonella larvae was cultivated at 37 °C and survival rates were recorded every 12 h for 5 days to analyze the mortality data.
# [12] = Solubility of compounds in water (HPLC); format: physicochemical; conditions: pure water
# Experimental: Weigh the sample in a 10 mL volumetric flask, dissolve in methanol up to the mark to obtain a reference solution of known concentration. Inject 5 μL into the HPLC, detect peak area at 254 nm wavelength. Prepare supersaturated aqueous solution of the sample, filter and inject 5 μL into the HPLC, detect peak area at 254 nm wavelength. The solubility of the compound in water […] is calculated according to the following formula: CS = CA × AB/AA (CA represents the concentration of the reference solution, AA represents the peak area of the reference solution, and AB represents the saturated peak area of the sample).
# USA400 MW2 [13] = assay: MIC determination, broth microdilution; conditions: Staphylococcus aureus
# [14] = HS663/imipenem, at maximum sensitization concentration
# [15] = HS663/imipenem, at minimum sensitization concentration
# [16] = HS663/imipenem, test range 0.03–32 μg/mL
# [17] = USA400 MW2/oxacillin, at minimum sensitization concentration
# [18] = USA400 MW2/oxacillin, test range 0.03–32 μg/mL
# [19] = at maximum sensitization concentration
# [20] = at minimum sensitization concentration
structure (smiles),measurement,setting,value
CN[C@H](CC(C)C)C(=O)N[C@H]1C(=O)N[C@@H](CC(N)=O)C(=O)N[C@H]2C(=O)N[C@H]3C(=O)N[C@H](C(=O)N[C@H](C(=O)O)c4cc(O)cc(O)c4-c4cc3ccc4O)[C@H](O)c3ccc(c(Cl)c3)Oc3cc2cc(c3O[C@@H]2O[C@H](CO)[C@@H](O)[C@H](O)[C@H]2O[C@H]2C[C@](C)(N)[C@H](O)[C@H](C)O2)Oc2ccc(cc2Cl)[C@H]1O [vancomycin],MIC,bacteria,1 µg/mL
"CCN(CC)c1nc2c(S(=O)(=O)c3ccc(Cl)cc3)nnn2c2cc(OC)c(OC)cc12 [Targocil, reference compound]",MIC,"[1]; Targocil alone, WT S.aureus",about 8 μg/mL
same,lethal effect on the tarO mutant,[2],did not exhibit a lethal effect
C[C@H]1[C@@H](c2cc(C(F)(F)F)cc(C(F)(F)F)c2)OC(=O)N1C(=O)CCn1ccc(=O)c2cccnc21 [Compound 18a],IC50 at 72 h,"[3]; Capan-1, 72 h",> 20 µM
same,IC50 at 72 h,"[3]; HCT-116, 72 h",> 20 µM
same,IC50 at 72 h,"[3]; NCI-H1373, 72 h",> 20 µM
same,pIC50,TarO,5.44
same,concentration (as low as) significantly reducing biofilm formation,[4],8 µg/mL
same,Clint In Vitro,[5]; Mouse liver microsomes,3051 mL/min/gprot
same,Comments (metabolic stability),[5]; Mouse liver microsomes,poor and did not achieve the desired result
same,half-life at 0.1 μM,"[5]; pH 7.4, Mouse liver microsomes 0.33 mg/mL, 0.1 μM compound",41.4 s
same,FICI,HS663 [6]; [14],<0.15
same,Sensitization fold,HS663 [6]; [14],8
same,FICI,HS663 [6]; [15],<0.51
same,Sensitization fold,HS663 [6]; [15],2
same,Maximum sensitization concentration,HS663 [6]; [16],4 µg/mL
same,Minimum sensitization concentration,HS663 [6]; [16],0.03 µg/mL
same,"MIC of β-lactam, combined",HS663 [6]; imipenem with TarO inhibitor at maximum sensitization concentration,8 µg/mL
same,"MIC of β-lactam, combined",HS663 [6]; imipenem with TarO inhibitor at minimum sensitization concentration,32 µg/mL
same,concentration (as low as) alleviating the growth inhibition of Targocil,"[1]; WT strain, 18a range 0.25–128 μg/mL",0.25 µg/mL
same,Sensitization fold,"USA400 MW2 [7]; USA400 MW2/oxacillin, at maximum sensitization concentration",64
same,FICI,USA400 MW2 [7]; [17],<0.26
same,Sensitization fold,USA400 MW2 [7]; [17],4
same,Maximum sensitization concentration,USA400 MW2 [7]; [18],32 µg/mL
same,Minimum sensitization concentration,USA400 MW2 [7]; [18],0.03 µg/mL
same,"MIC of β-lactam, combined",USA400 MW2 [7]; oxacillin with TarO inhibitor at maximum sensitization concentration,0.25 µg/mL
same,"MIC of β-lactam, combined",USA400 MW2 [7]; oxacillin with TarO inhibitor at minimum sensitization concentration,4 µg/mL
same,FICI,USA300 LAC [8]; [19],<0.13
same,Sensitization fold,USA300 LAC [8]; [19],256
same,FICI,USA300 LAC [8]; [20],<0.13
same,Sensitization fold,USA300 LAC [8]; [20],8
same,Minimum sensitization concentration,USA300 LAC [8]; test range 0.03–32 μg/mL,0.03 µg/mL
same,vraXpro-lux expression pattern and growth characteristics of the tarO mutant,[9],neither Tarocin A nor 18a further changed the vraXpro-lux expression pattern as well as the growth characteristics of the mutant
same,MIC,"HS663 [10]; HS663, compound alone",exceeds 256 μg/mL
same,MIC,HS663 [10]; Staphylococcus aureus,> 256 µg/mL
same,MIC,USA300 LAC [11],> 256 µg/mL
same,extension of survival time,"MRSA HS663 strain; 16 mg/kg, higher infection dose, HS663 2.0 × 10^6 CFU",even higher than that of 20 mg/kg of imipenem treating group
same,"survival rate of infected larvae, combination","MRSA HS663 strain; 18a 16 mg/kg in combination with 20 mg/kg imipenem, compared with imipenem alone, 2.0 × 10^6 CFU",a further improvement in the survival rate
same,survival time of infected larvae,MRSA HS663 strain; single administration 8 mg/kg,significantly extended the survival time
same,survival time of infected larvae,MRSA HS663 strain; single administration 16 mg/kg,significantly extended the survival time
same,solubility,[12],20 µg/mL
same,MIC,USA400 MW2 [13],> 256 µg/mL
